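Cells were grown in 96-well plates and exposed to each compound for 48 hours at five concentrations; endpoints were interpolated linearly between bracketing concentrations, or set to the highest concentration if not reached. GI50 marks 50% less growth.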 Calls of active or inactive are those of the source. No stated cut-off is given here; in the data, active = GI50 up to about 1.1 µM and inactive = higher.
Columns and labels:
Assay in all cases: growth of human tumour cells (NCI), 48 h
[1] = test system: SF-268
[2] = test system: HOP-92
[3] = test system: A549
[4] = test system: NCI-H460
[5] = test system: LOX IMVI
[6] = test system: HCT-15
[7] = test system: U-251
[8] = test system: HOP-62
[9] = test system: MDA-N
[10] = test system: A498
[11] = test system: K562
[12] = test system: IGROV-1
[13] = test system: MCF7
[14] = test system: HL-60
[15] = test system: CAKI-1
[16] = test system: SF-295
[17] = test system: SK-MEL-5
[18] = test system: OVCAR-3
[19] = test system: OVCAR-8
[20] = test system: NCI-H23
[21] = test system: SNB-75
[22] = test system: MDA-MB-231
[23] = test system: Malme-3M
[24] = test system: NCI-H226
[25] = test system: HCC 2998
[26] = test system: Hs-578T
[27] = test system: ACHN
[28] = test system: MDA-MB-435
[29] = test system: KM12
[30] = test system: CCRF-CEM
[31] = test system: EKVX
[32] = test system: M14
[33] = test system: SK-MEL-2
[34] = test system: SN12C
[35] = test system: SNB-19
[36] = test system: COLO 205
[37] = test system: RPMI-8226
[38] = test system: SK-MEL-28
[39] = test system: MOLT-4
[40] = test system: SF-539
[41] = test system: SW-620
[42] = test system: NCI-H522
[43] = test system: HT-29
[44] = test system: UACC-257
[45] = test system: DU-145
[46] = test system: OVCAR-5
[47] = test system: T47D
[48] = test system: SK-OV-3
[49] = test system: UO-31
[50] = test system: TK-10
[51] = test system: PC-3
[52] = test system: 786-0
[53] = test system: NCI/ADR-RES
[54] = test system: RXF 393
[55] = test system: UACC-62
[56] = test system: OVCAR-4
[57] = test system: HCT-116

Measured: GI50

CC1(C)SCc2nc3ccccc3n21
inactive: [1] > 100 µM | [2] > 100 µM | [3] > 100 µM | [4] > 100 µM | [5] > 100 µM | [7] > 100 µM | [8] > 100 µM | [9] > 100 µM | [10] > 100 µM | [11] > 100 µM | [12] > 100 µM | [13] > 100 µM | [14] > 100 µM | [15] > 100 µM | [16] > 100 µM | [17] > 100 µM | [18] > 100 µM | [19] > 100 µM | [20] > 100 µM | [22] > 100 µM | [23] > 100 µM | [24] 89.9 µM | [25] > 100 µM | [26] > 100 µM | [27] > 100 µM | [28] > 100 µM | [29] > 100 µM | [30] > 100 µM | [31] > 100 µM | [32] > 100 µM | [33] > 100 µM | [34] > 100 µM | [35] > 100 µM | [36] > 100 µM | [37] > 100 µM | [38] > 100 µM | [39] > 100 µM | [40] > 100 µM | [41] > 100 µM | [42] > 100 µM | [43] > 100 µM | [44] > 100 µM | [45] > 100 µM | [46] > 100 µM | [47] > 100 µM | [48] > 100 µM | [49] > 100 µM | [50] > 100 µM | [51] > 100 µM | [52] > 100 µM | [53] > 100 µM | [54] > 100 µM | [55] > 100 µM | [56] > 100 µM | [57] > 100 µM
active: [21] 0.0119 µM
> 100 µM: [6]

CC(=O)/N=S(/NC(=O)c1ccc(C)cc1)C(Cl)(Cl)Cl (stereo not given)
active: [14] 0.226 µM
inactive: [1] 97.1 µM | [2] > 100 µM | [3] > 100 µM | [4] 38.5 µM | [5] 29.7 µM | [7] 22 µM | [8] 56.4 µM | [9] 55.6 µM | [11] 23.9 µM | [12] 38.6 µM | [13] 51.9 µM | [16] > 100 µM | [17] 33.3 µM | [18] 20.9 µM | [19] 15.6 µM | [20] 24.1 µM | [21] 45.3 µM | [22] 26.2 µM | [23] 29.6 µM | [24] > 100 µM | [25] 15.1 µM | [26] 59.3 µM | [27] 41 µM | [28] 19.1 µM | [29] > 100 µM | [30] 18.6 µM | [31] 44.5 µM | [32] 15.7 µM | [34] 37.9 µM | [35] 94.8 µM | [36] 19.8 µM | [37] 74.3 µM | [38] 46.7 µM | [39] 25.1 µM | [40] 77.1 µM | [41] 15.8 µM | [43] 23.6 µM | [44] 44 µM | [45] > 100 µM | [46] 36.2 µM | [47] 34.3 µM | [48] 70 µM | [49] 26.1 µM | [50] > 100 µM | [51] > 100 µM | [52] 18 µM | [53] 20.4 µM | [54] 44.6 µM | [55] 99.3 µM | [56] 31.2 µM | [57] 31 µM
42.8 µM: [6]

Reference: ChEMBL document CHEMBL1201862, “PubChem BioAssay data set” (2004)
